According to ChEMBL document CHEMBL5725362, “Long chain base sphingosine kinase inhibitors” (2017):

Target: Sphingosine kinase 1 (Homo sapiens, UniProt Q9NYA1)
Assay: Scintillation Proximity Assay: SphK activity was measured by a scintillation proximity assay as previously described [1], the disclosure of which is incorporated herein. Briefly, recombinant SphK1 or SphK2 were expressed in Sf9 insect cells, crude homogenates were prepared and incubated in 96 well FlashPlates (Perkin-Elmer) in a buffer containing D-erythro-sphingosine and γ-[33P]ATP. The [33P]S1P …

Chain of Sphingosine kinase 1 (Q9NYA1 whole entry): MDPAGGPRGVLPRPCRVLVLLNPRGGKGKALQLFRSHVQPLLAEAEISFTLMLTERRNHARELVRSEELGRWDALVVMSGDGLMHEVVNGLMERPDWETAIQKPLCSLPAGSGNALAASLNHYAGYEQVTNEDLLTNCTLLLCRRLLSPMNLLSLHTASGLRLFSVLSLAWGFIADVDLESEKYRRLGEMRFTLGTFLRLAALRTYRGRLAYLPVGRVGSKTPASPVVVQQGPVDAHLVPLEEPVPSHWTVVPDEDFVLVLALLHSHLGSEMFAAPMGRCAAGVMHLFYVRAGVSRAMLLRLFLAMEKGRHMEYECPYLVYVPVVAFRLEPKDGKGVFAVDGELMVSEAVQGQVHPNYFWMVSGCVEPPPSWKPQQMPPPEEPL

| Ki | Compound |
| --- | --- |
| < 1000 nM | CCCCCCCCCCCCc1cccc(-c2noc(C3(C(=N)N)CC3)n2)c1 |
| > 10000 nM | N=C(N)N1CCC[C@H]1c1nc(-c2ccc(CS(=O)(=O)c3ccccc3)cc2)no1 |
| < 1000 nM | CCCCCCCCCCCc1ccc(F)c(-c2nnc(C3(C(=N)N)CC3)o2)c1 |
| < 1000 nM | CCCCCCCCCCCc1cccc(-c2nc(C3(C(=N)N)CC3)n[nH]2)c1 |
| < 1000 nM | CCCCCCCCCCCc1cc(-c2nnc(C3(C(=N)N)CC3)o2)ccc1F |
| < 1000 nM | CCCCCCCCCCCc1cc(-c2noc(C3(C(=N)N)CC3)n2)ccc1C |
| < 1000 nM | CCCCCCCCCCCc1cccc(-c2nnc(C3(C(=N)N)CC3)o2)c1 |
| < 1000 nM | N=C(N)C1(c2nnc(-c3cccc(CCCCCCOCC4CCCCC4)c3)o2)CC1 |
| > 10000 nM | CCCCCCCCCCc1ccc(/C=C/C2(C(=N)N)CC2)cc1 |
| < 1000 nM | N=C(N)C1(c2nc(-c3cccc(CCCCCCOCC4CCCCC4)c3)no2)CC1 |
| < 1000 nM | N=C(N)C1(c2nc(-c3cccc(CCc4cccc(CCC5CCCCC5)c4)c3)no2)CC1 |
| < 1000 nM | CCCCCCCCCCCc1ccc(C)c(-c2nnc(C3(C(=N)N)CC3)o2)c1 |
| < 1000 nM | N=C(N)C1(c2nnc(-c3ccc(CCCCCCCOCC4CCCCC4)cc3)o2)CC1 |
| < 1000 nM | CCCCCCCCCCCc1cc(-c2nnc(C3(C(=N)N)CC3)o2)ccc1C |
